From patent US10688093B2, “Methods, compositions, and uses of novel Fyn kinase inhibitors” (priority 2015, dated 2020) come the findings set out here.

Chain of full-length recombinant human FYN A (P06241 whole entry): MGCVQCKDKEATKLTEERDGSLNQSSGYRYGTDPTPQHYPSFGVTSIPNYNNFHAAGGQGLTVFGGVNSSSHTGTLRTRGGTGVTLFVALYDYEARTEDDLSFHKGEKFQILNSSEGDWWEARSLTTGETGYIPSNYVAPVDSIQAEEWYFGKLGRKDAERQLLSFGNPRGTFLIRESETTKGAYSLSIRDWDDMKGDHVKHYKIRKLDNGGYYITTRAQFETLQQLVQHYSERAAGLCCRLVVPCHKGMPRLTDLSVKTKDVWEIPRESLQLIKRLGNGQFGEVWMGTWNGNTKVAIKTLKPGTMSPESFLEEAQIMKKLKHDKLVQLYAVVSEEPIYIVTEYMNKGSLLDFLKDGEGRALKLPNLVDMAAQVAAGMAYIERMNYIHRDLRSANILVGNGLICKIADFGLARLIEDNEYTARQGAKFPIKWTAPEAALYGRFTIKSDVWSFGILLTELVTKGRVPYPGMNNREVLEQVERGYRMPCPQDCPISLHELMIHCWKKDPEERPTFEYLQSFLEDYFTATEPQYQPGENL

The target of one assay is full-length recombinant human FYN A (Homo sapiens (Human), UniProt P06241). Kind of assay: ADP-Glo Kinase Assay of FYN kinase inhibition. It is filed as biochemical. As to conditions: primary screen, initial compounds. The source says:
The chemical library was comprised of the SoftFocus ATP-competitive hinge binding compounds described by Harris, C. J., Hill, R. D., Sheppard, D. W., et al., The Design and Application of Target-Focused Compound Libraries. Combinatorial Chemistry and High Throughput Screening 14:521-31 (2011). The specific pharmacore chemistries included SFK52 comprising 6-[R2]-3-[R1]imidazo[1,2-b] pyridazine compounds, SFK33 comprising N-(3-[R2] imidazo [1,2-b] pyridazin-6-yl) [R1] amine compounds, SFK49 comprising N-(5-[R2] imidazo [2,1-b][1,3,4] thiadiazol-2-yl)[R1]-amine compounds, SFK 40 comprising 5-[R2]-3-[R1] pyridin-2-amine compounds, SFK43 comprising 6-[R2]-3-[R1]imidazo[1,2-a]pyrazine compounds, and SFK63. The chemical structures of the initial 600 potential kinase inhibitors are presented in Table 3, with those chosen for additional analysis presented in Table 4. Comparison of the compounds presented in Table 1 and those of Tables 2, 3 and 4, illustrate the novelty of the chemical structures claimed herein.
FYN kinase (10 micrograms) was from the FYN A Kinase Enzyme System (V3571, Promega UK Ltd.), a full-length recombinant human FYN A containing an N-terminal GST tag of about 85 kDa, expressed by bacullovirus in […] insect cells, supplied at a concentration of 0.1 microgram/microliter in 5×reaction buffer. The FYN substrate, a 12 amino acid peptide of the sequence […], containing a single tyrosine phosphorylation site, was custom synthesized (Peptide Synthetics, Peptide Protein Research, Fareham, UK) and supplied as a 4 mg/ml aqueous solution. All other reagents were obtained from Sigma (Sigma-Aldrich, Gillingham, Dorset, UK), with the exception of UltraPure ATP (V9102, Promega UK Ltd.) and the ATP-competitive broad spectrum protein kinase inhibitor staurosporine (569397, Merck Millipore, Watford, Hertfordshire, UK), or as otherwise indicated.
The assay procedure determines the IC50 of each potential FYN kinase inhibitor by measuring the enzyme catalyzed ATP-dependent phosphorylation of the FYN substrate peptide. The ADP-Glo™ Kinase Assay is specifically designed to quantify kinase activity by measuring the ADP produced in the reaction The reaction buffer comprises 40 mM Tris.HCl (pH 7.5), 20 mM MgCl2, 0.1 mg/ml BSA and 5 microM DTT. Individual compounds within the chemical library were dissolved in DMSO at known concentrations. Briefly, 2.5 microliters of reaction buffer containing 3 picograms of FYN kinase and serial dilutions of each potential FYN kinase inhibitor (9 3-fold dilutions of a 10 micromolar top sample) are placed into each well of a 384 well microtiter plate and incubated at room temperature for 30 minutes. An additional 2.5 microliters of reaction buffer containing 100 picograms of the FYN substrate and 12.5 picomoles of ATP are then added to each well and the reaction carried out for 90 minutes at room temperature. The reactions are terminated by addition of 5 microliters of the ADP-Glo™ Reagent component of the ADP-Glo™ Kinase Assay kit to each well. The ADP-Glo™ Reagent comprises an ATP-dependent adenylate cyclase, an inorganic pyrophosphatase and an excess of staurosporine. The adenylate cyclase converts the remaining ATP to cAMP and pyrophospahte, the pyrophosphatase converts the pyrophosphate to phosphate and the staurosporine inhibits the activity of the FYN kinase, the net effect is to remove all residual ATP while preserving the ADP produced by FYN kinase. The terminated reactions are incubated for 40 minutes at room temperature, prior to addition of the Kinase Detection Reagent component of the ADP-Glo™ Kinase Assay kit to each well. The Kinase Detection Reagent comprises pyruvate kinase, phosphoenol pyruvate (PEP), luciferin and luciferase. The pyruvate kinase converts PEP to pyruvate and in the process generates ATP from the residual ADP present in the terminated reaction. […]
In general terms: In ADP-Glo the light output rises with the ADP produced.
Consider `COc1cccc(-c2cnc(N)c(-c3ccc(O)c(OC)c3)c2)c1` [382_0314_4140, 4-[2-amino-5-(3-methoxyphenyl)-3-pyridyl]-2-methoxy-phenol], for which the IC50 (usually the concentration needed to halve the response being measured) worked out at 1.2 µM. As for `c1cc(-c2cnc3ccc(-c4ccc5c(c4)OCO5)nn23)ccn1` [Compound 345, 6-(1,3-benzodioxol-5-yl)-3-(4-pyridyl)imidazo [1,2-b]pyridazine], the IC50 turned out to be 0.217 µM.

For the molecule `CS(=O)(=O)Nc1cccc(-c2ccc3ncc(-c4cccc(CO)c4)n3n2)c1` [Compound 384], the IC50 stood at 1.15 µM. Turning to `Oc1ccc(-c2cnc3cnc(-c4cccnc4)cn23)cc1` [Compound 206, 4-[6-(3-pyridyl)imidazo [1,2-a]pyrazin-3-yl]phenol], the IC50 worked out at 2.73 µM.

In the case of `CN(C)CCNC(=O)c1cccc(-c2ccc3ncc(-c4cccc(OC(F)(F)F)c4)n3n2)c1` [Compound 448, N-(2-dimethylamino-ethyl)-3-[3-[3-(trifluoromethoxy)phenyl]imidazo [1,2-b]pyridazin-6-yl]benzamide], the half-maximal inhibitory concentration (IC50) was 3.93 µM. Regarding `COc1ccc(-c2cnc(N)c(-c3ccc(O)c(OC)c3)c2)cc1` [382_0314_0280, 4-[2-amino-5-(4-methoxyphenyl)-3-pyridyl]-2-methoxy-phenol], the IC50 was determined as 4.16 µM.

As for `COc1cc(-c2ccc3ncc(-c4cccs4)n3n2)ccc1O` [Compound 423, 2-methoxy-4-[3-(2-thienyl)imidazo[1,2-b]pyridazin-6-yl]phenol], the IC50 turned out to be 0.694 µM. The same measure, in the same setting: under `CC(=O)Nc1cccc(-c2ccc3ncc(-c4cccc(NC(C)=O)c4)n3n2)c1` [Compound 279, N-[3-[3-(3-acetamidophenyl)imidazo[1,2-b]pyridazin-6-yl]phenyl] acetamide] stands 0.553 µM; under `c1ccc(Nc2cc3[nH]c(-c4cn[nH]c4)cc3cn2)nc1` [Compound 306, 2-(1H-pyrazol-4-yl)-N-(2-pyridyl)-1H-pyrrolo[3,2-c]pyridin-6-amine], 7.57 µM; under `Nc1ccc(-c2cnc3ccc(NC4CCOCC4)nn23)cc1` [229_0242_0333, 3-(4-aminophenyl)-N-tetrahydropyran-4-yl-imidazo[1,2-b]pyridazin-6-amine], 3.13 µM. On the same count and under the same terms, with `CN1CCN(c2ccc(-c3cn4c(-c5cccc(O)c5)cnc4cn3)cc2)CC1` [Compound 235, 3-[6-[4-(4-methyl-piperazin-1-yl)phenyl]imidazo [1,2-a]pyrazin-3-yl]phenol] the figure was 1.59 µM.

Turning to `CC(=O)Nc1cccc(-c2cnc3ccc(-c4ccccc4)nn23)c1` [Compound 314, N-[3-(6-phenylimidazo [1,2-b]pyridazin-3-yl)phenyl] acetamide], the IC50 was determined as 0.773 µM. On to `O=C(NCCO)c1ccc(-c2cn3c(-c4cccc(O)c4)cnc3cn2)cc1` [Compound 243, N-(2-hydroxyethyl)-4-[3-(3-hydroxyphenyl)imidazo[1,2-a]pyrazin-6-yl]benzamide], for which the IC50 is 1.72 µM. As to `Clc1ccc(-c2cnc3sc(NCc4cccnc4)nn23)cc1` [Compound 556, 5-(4-chlorophenyl)-N-(3-pyridylmethyl) imidazo[2,1-b] [1,3,4]thiadiazol-2-amine], the IC50 amounted to 3.66 µM. On to `CCCNc1ccc2ncc(-c3ccc4c(c3)OCO4)n2n1` [229_0226_0068, 3-(1,3-benzodioxol-5-yl)-N-propyl-imidazo[1,2-b]pyridazin-6-amine], for which the IC50 was found to be 2.05 µM. In the case of `COCOc1ccc(-c2cc(-c3cccc(C(N)=O)c3)cnc2N)cc1` [382_0341_0347, 3-[6-amino-5-[4-(methoxymethoxy)phenyl]-3-pyridyl]benzamide], the IC50 was found to be 3.02 µM. For `O=C(O)c1ccc(-c2cnc3ccc(NCc4ccc(Cl)c(Cl)c4)nn23)cc1` [229_0227_0140, 4-[6-[(3,4-dichlorophenyl)methylamino]imidazo[1,2-b]pyridazin-3-yl]benzoic acid], the IC50 was determined as 1.01 µM.

Regarding `COc1cc(-c2cnc3ccc(NCc4ccco4)nn23)cc(OC)c1OC` [229_0144_0086, N-(2-furylmethyl)-3-(3,4,5-trimethoxyphenyl) imidazo[1,2-b]pyridazin-6-amine], the IC50 came out at 4.9 µM.

In the case of `Nc1ccc(-c2cn3c(-c4ccc(Oc5ccccc5)cc4)cnc3cn2)cn1` [Compound 221, 5-[3-(4-phenoxyphenyl)imidazo[1,2-a]pyrazin-6-yl]pyridin-2-amine], the IC50 turned out to be 1.72 µM. For `CNC(=O)c1cccc(-c2ccc3ncc(-c4ccc(CO)cc4)n3n2)c1` [Compound 488, 3-[3-[4-(hydroxymethyl)phenyl]imidazo [1,2-b]pyridazin-6-yl]-N-methyl-benzamide], the IC50 was determined as 14.9 µM. Turning to `Cn1cc(-c2cnc3sc(NCCc4ccc(S(N)(=O)=O)cc4)nn23)cn1` [Compound 261, 4-[2-[[5-(1-methylpyrazol-4-yl)imidazo[2,1-d][1,3,4]thiadiazol-2-yl]amino]ethyl] benzene-sulfonamide], the IC50 is 2.26 µM. On the same count and under the same terms, with `CC(=O)Nc1cccc(-c2cnc3ccc(-c4cccc(O)c4)nn23)c1` [Compound 315, N-[3-[6-(3-hydroxyphenyl)imidazo[1,2-b]pyridazin-3-yl]phenyl] acetamide] the figure was 1.07 µM. Same read-out and setting: under `CCC(CO)Nc1cncc(-c2cc(C(C)C)ccc2OC)n1` (stereo not drawn) [035_0153_0286, 2-[[6-(5-isopropyl-2-methoxy-phenyl)pyrazin-2-yl]amino]butan-1-ol] stands 11.8 µM.

In the case of `COc1ccccc1-c1n[nH]c2nccc(-c3cccc(CO)c3)c12` [Compound 508, [3-[3-(2-methoxyphenyl)-1H-pyrazolo[3,4-b]pyridin-4-yl]phenyl] methanol], the IC50 was determined as 1.67 µM. Regarding `O=C(O)c1ccc(-c2cnc3ccc(NCc4ccco4)nn23)cc1` [229_0144_0140, 4-[6-(2-furylmethyl-amino)imidazo[1,2-b]pyridazin-3-yl]benzoic acid], the IC50 came to 3.88 µM. Regarding `CNc1ccc2ncc(/C=C\CCCO)n2n1` [Compound 542, (Z)-5-[6-(methylamino)imidazo[1,2-b]pyridazin-3-yl]pent-4-en-1-ol], the IC50 is 31.5 µM. Regarding `CN(C)C(=O)c1cccc(-c2cnc3sc(NCCc4ccc(S(N)(=O)=O)cc4)nn23)c1` [Compound 252, N,N-dimethyl-3-[2-[2-(4-sulfamoylphenyl)ethylamino]imidazo[2,1-a] [1,3,4]thiadiazol-5-yl]benzamide], the 50% inhibitory concentration (IC50) stood at 0.909 µM. On the same count and under the same terms, with `CN(C)CCNC(=O)c1ccc(-c2cn3c(-c4cccc(O)c4)cnc3cn2)cc1` [Compound 239, N-(2-dimethylamino-ethyl)-4-[3-(3-hydroxyphenyl)imidazo[1,2-a]pyrazin-6-yl]benzamide] the figure was 0.812 µM; with `Oc1ccc(-c2cnc3cnc(-c4ccc(Cl)cc4)cn23)cc1` [Compound 208, 4-[6-(4-chlorophenyl)imidazo[1,2-a]pyrazin-3-yl]phenol], 6.38 µM. On to `COc1ccc(-c2cnc3ccc(-c4ccccc4)nn23)cc1OC` [Compound 327, 3-(3,4-dimethoxy-phenyl)-6-phenyl-imidazo[1,2-b]pyridazine], for which the IC50 stood at 0.42 µM.

Still in this assay, the particulars now being: secondary screen, re-synthesized and expanded compounds.
As for `O=C(NCCO)c1ccc(-c2cn3c(-c4ccc(Oc5ccccc5)cc4)cnc3cn2)cc1` [BF000334032, N-(2-hydroxy-ethyl)-4-[3-(4-phenoxy-phenyl)-imidazo-[1,2-a]-pyrazin-6-yl]benzamide], the IC50 came to 0.464 µM. Still for that read-out and setting: with `COc1cc(-c2cc(-c3ccc(C(N)=O)cc3)cnc2N)cc(OC)c1OC` [BF000312540, 4-[6-amino-5-(3,4,5-trimethoxy-phenyl)-3-pyridyl]-benzamide] the figure was 0.458 µM; with `COc1ccc(-c2cnc(N)c(-c3ccc(N4CCN(C)CC4)cc3)c2)cc1O` [BF000817418, 5-[6-amino-5-[4-(4-methyl-piperazin-1-yl)phenyl]-3-pyridyl]-2-methoxy-phenol], 9.65 µM.
